Here are results for one compound from ChEMBL document CHEMBL5352438, “Discovery of Pyrrolo[2,3-d]pyrimidine derivatives as potent and selective colony stimulating factor 1 receptor kinase inhibitors” (Eur J Med Chem, 2022).

Series [1] can be described thus: in vivo. To be noted: Sprague-Dawley, rat, iv, 1 mg/kg.
A short description of series [2]: in vivo. Conditions: Sprague-Dawley, rat, po, 10 mg/kg.
Series [3] can be described thus: in vivo. Conditions: Sprague-Dawley, rat, iv, 1 mg/kg. The source holds these as a separate data set.
Series [4] in a line: in vivo. Conditions: Sprague-Dawley, rat, po, 10 mg/kg. This is another data set of the same source.
Series [5] is described as follows: in vivo. To be noted: Sprague-Dawley, rat, iv, 1 mg/kg. The source holds these as a separate data set.
Series [6] is described as follows: in vivo. To be noted: Sprague-Dawley, rat, iv, 1 mg/kg. This is another data set of the same source.
The nature of series [7]: in vivo. To be noted: Sprague-Dawley, rat, po, 10 mg/kg. The source holds these as a separate data set.
Series [8] is described as follows: in vivo. Conditions: Sprague-Dawley, rat, po, 10 mg/kg. The source holds these as a separate data set.

Turning to `Cn1ccc2c(Oc3ccc(NC(=O)Cc4ccc(C(F)(F)F)c(F)c4)cc3)ncnc21`, the Cmax at 12 h in series [1] came to 1430 ng/mL; in series [2] it was 1190 ng/mL. Also, the AUC(0-inf) at 12 h in series [3] worked out at 1310 ng·h/mL; in series [4], 14600 ng·h/mL. In addition, in series [5], the Vd at 12 h turned out to be 1.55 L/kg. The clearance at 12 h in series [6] was 13.3 mL/min/kg. In addition, the CL/F at 12 h in series [7] was 11.6 mL/min/kg. In series [8], the bioavailability at 12 h came out at 111%.
